Among the data in BindingDB's records for doi:10.7270/Q2T72FVT (University of Pittsburgh, 2007) are IC50 values, retold here.

The target in this assay is Serine/threonine-protein kinase PLK1 (Homo sapiens, UniProt P53350). The assay is described as follows: Plk1 polo box domain binding inhibitors, dose response, biochemical, fluorescence polarization (AID 877). On the technique in general: Fluorescence polarisation rises when a labelled molecule tumbles more slowly, as on binding a larger partner.

Bounds are passed on as bounds.

Serine/threonine-protein kinase PLK1, sequence (P53350 whole entry, the tested form may be a part): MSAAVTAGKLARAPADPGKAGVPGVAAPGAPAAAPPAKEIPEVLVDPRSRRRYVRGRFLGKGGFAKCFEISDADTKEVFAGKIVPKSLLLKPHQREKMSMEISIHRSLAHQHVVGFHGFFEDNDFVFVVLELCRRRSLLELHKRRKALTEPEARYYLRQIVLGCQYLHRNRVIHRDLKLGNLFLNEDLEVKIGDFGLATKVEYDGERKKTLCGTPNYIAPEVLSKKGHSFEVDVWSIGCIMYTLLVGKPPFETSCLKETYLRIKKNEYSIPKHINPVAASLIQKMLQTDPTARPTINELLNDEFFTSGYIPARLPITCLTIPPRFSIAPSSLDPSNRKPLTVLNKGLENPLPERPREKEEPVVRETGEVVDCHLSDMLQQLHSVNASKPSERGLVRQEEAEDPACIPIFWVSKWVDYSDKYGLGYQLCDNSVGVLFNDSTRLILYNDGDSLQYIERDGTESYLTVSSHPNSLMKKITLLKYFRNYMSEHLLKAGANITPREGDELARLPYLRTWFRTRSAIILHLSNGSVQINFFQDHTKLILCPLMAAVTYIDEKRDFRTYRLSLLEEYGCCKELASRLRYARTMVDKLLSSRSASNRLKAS

In turn, `CCCSc1nc(N2CCOCC2)c2c(c1C#N)CCCC2` [1-(4-morpholinyl)-3-(propylthio)-5,6,7,8-tetrahydroisoquinoline-4-carbonitrile] showed a 50% inhibitory concentration (IC50) greater than 50 µM.
Consider `CCOc1ccccc1N1CCN(C2=C(NS(=O)(=O)c3cccs3)C(=O)c3ccccc3C2=O)CC1` [MLS000551587], for which the IC50 is greater than 50 µM.
The same measure for `CCc1noc(C)c1C(=O)N1CCOCC1` [(3-ethyl-5-methyl-1,2-oxazol-4-yl)-morpholin-4-yl-methanone]: greater than 50 µM; for `C/C(=C\C(=O)Nc1cc(C)on1)c1ccccc1` [(E)-N-(5-methyl-1,2-oxazol-3-yl)-3-phenyl-but-2-enamide]: greater than 50 µM.
For `NC(=O)Cn1c(S(=O)(=O)Cc2ccccc2)nc2ccccc21` [2-(2-benzylsulfonylbenzimidazol-1-yl)acetamide] the value was greater than 50 µM.
As for `O=C(O)C1CCCCC1C(=O)Nc1ccc2c(c1)OCCO2` (stereo not drawn) [2-(2,3-dihydro-1,4-benzodioxin-6-ylcarbamoyl)cyclohexane-1-carboxylic acid], the IC50 was greater than 50 µM.
`Cc1ccc(NC2=CC(=NS(=O)(=O)c3cccs3)c3ccccc3C2=O)c(C)c1` had an IC50 greater than 50 µM.
For `CC(C)=CC(=O)NCCc1ccccc1` [MLS000089152] the value was greater than 50 µM.
The same measure for `CC(C)Sc1nc(N2CCOCC2)c2c(c1C#N)CC(C)(C)N(C)C2` [3-(isopropylthio)-6,6,7-trimethyl-1-morpholino-5,8-dihydro-2,7-naphthyridine-4-carbonitrile]: greater than 50 µM; for `Fc1ccc(Cn2nnnc2CN2CCN(C3CCCC3)CC2)cc1` [1-Cyclopentyl-4-[1-(4-fluoro-benzyl)-1H-tetrazol-5-ylmethyl]-piperazine]: greater than 50 µM; for `CC1Cc2ccccc2N1C(=O)c1ccc2c(c1)nnn2C` (stereo not drawn) [(1-methyl-5-benzotriazolyl)-(2-methyl-2,3-dihydroindol-1-yl)methanone]: greater than 50 µM.
The same measure for `O=[N+]([O-])c1ccc(N2CCNCC2)cc1NCC1CCCO1` (stereo not drawn) [(2-nitro-5-piperazino-phenyl)-(tetrahydrofurfuryl)amine]: greater than 50 µM; for `CC1CN(C2CC(C)(C)NC(C)(C)C2)CCC1=O` (stereo not drawn) [3-methyl-1-(2,2,6,6-tetramethyl-4-piperidinyl)-4-piperidinone]: greater than 50 µM; for `CCOC(=O)c1c2c(n(C)c1C)C(=O)C(=O)c1ccc(Br)cc1-2` [8-bromo-2,3-dimethyl-4,5-dioxo-1-benzo[e]indolecarboxylic acid ethyl ester]: 10.4 µM.
Turning to `Cc1ccc(-n2c(O)c(C=NCCN3CCOCC3)c(=O)[nH]c2=O)cc1`, the IC50 is greater than 50 µM.
For `Cc1nc2cccc(C)n2c(=O)c1Cl` [3-chloranyl-2,6-dimethyl-pyrido[1,2-a]pyrimidin-4-one] the value was greater than 50 µM.
On to `CCOC(=O)Cc1csc(NC(=O)CSc2nnc(-c3ccc(F)cc3)o2)n1` [(2-{2-[5-(4-Fluoro-phenyl)-[1,3,4]oxadiazol-2-ylsulfanyl]-acetylamino}-thiazol-4-yl)-acetic acid ethyl ester], for which the IC50 is greater than 50 µM.
`Nc1ccc2c(c1)C(=O)C(=O)c1ccccc1-2` [2-Amino-phenanthrene-9,10-dione]: the IC50 worked out at 5.9 µM.
With `COc1cc(OC)cc(C(=O)NCCCN2CCOCC2)c1` [3,5-Dimethoxy-N-(3-morpholin-4-yl-propyl)-benzamide], the IC50 is greater than 50 µM.
For `CC1Cn2c(nnc2-c2cc3ccccc3cc2O)S1` (stereo not drawn) [(3E)-3-(6-methyl-5,6-dihydro-2H-[1,3]thiazolo[2,3-c][1,2,4]triazol-3-ylidene)naphthalen-2-one] the value was greater than 50 µM; for `CC(=O)N1CCc2cc(Br)cc(S(=O)(=O)NCc3ccccn3)c21` [1-acetyl-5-bromo-N-(2-pyridinylmethyl)-2,3-dihydroindole-7-sulfonamide], greater than 50 µM; for `Cn1nc(-c2ccc(Cl)cc2)nc2c(=O)n(C)c(=O)nc1-2` [3-(4-Chloro-phenyl)-1,6-dimethyl-1H-pyrimido[5,4-e][1,2,4]triazine-5,7-dione], 2.46 µM.
`O=C1CCN2C=Nc3cccc4ccc1c2c34` [7,8-dihydro-9H-pyrido[1,2,3-cd]perimidin-9-one] gave an IC50 of 25.1 µM.
The same measure for `CC(C)N(Cc1cc2ccccc2[nH]c1=O)C(=O)c1cccnc1` [N-[(2-oxo-1H-quinolin-3-yl)methyl]-N-propan-2-ylpyridine-3-carboxamide]: greater than 50 µM; for `Cc1ccc(Cl)cc1N1CCN(S(=O)(=O)c2ccc3c(c2)oc(=O)n3C)CC1` [6-[4-(5-chloranyl-2-methyl-phenyl)piperazin-1-yl]sulfonyl-3-methyl-1,3-benzoxazol-2-one]: greater than 50 µM; for `CCNC(=O)NC(=O)C(C)OC(=O)c1cccnc1SC` (stereo not drawn) [2-(methylthio)-3-pyridinecarboxylic acid [1-(ethylcarbamoylamino)-1-oxopropan-2-yl] ester]: greater than 50 µM.
The compound `COc1ccc2c(c1OC)C(=O)OC2CC(=O)O` (stereo not drawn) [(4,5-dimethoxy-3-oxo-1,3-dihydro-2-benzofuran-1-yl)acetic acid] showed an IC50 greater than 50 µM.
Turning to `Cc1ccc2cc(C(c3nnnn3C3CCCC3)N3CCN(c4ccccc4)CC3)c(=O)[nH]c2c1` (stereo not drawn) [3-[(1-cyclopentyltetrazol-5-yl)-(4-phenylpiperazin-1-yl)methyl]-7-methyl-1H-quinolin-2-one], the IC50 was greater than 50 µM.
Consider `CCn1c(SCC(N)=O)nnc1-c1ccc(S(=O)(=O)N2CCN(C)CC2)cc1` [2-[[4-ethyl-5-[4-(4-methylpiperazin-1-yl)sulfonylphenyl]-1,2,4-triazol-3-yl]sulfanyl]acetamide], for which the IC50 is greater than 50 µM.
For `Cc1cccc2[nH]c3c(N4CCN(C(=O)c5ccco5)CC4)ncnc3c12` [SMR000148910] the value was greater than 50 µM; for `COc1cc(S(=O)(=O)N2CCCCCC2)ccc1-n1cnnn1` [1-(3-Methoxy-4-tetrazol-1-yl-benzenesulfonyl)-azepane], greater than 50 µM.
For `CC(C)(C)NC(=O)CC(CC(=O)O)c1ccccc1` (stereo not drawn) [5-(tert-butylamino)-5-keto-3-phenyl-valeric acid] the value was greater than 50 µM.
`NC(=O)C1(N2CCCCC2)CCN(C(=O)NC2CCCCC2)CC1` [1-N-cyclohexyl-4-piperidin-1-ylpiperidine-1,4-dicarboxamide] came in with an IC50 greater than 50 µM.
The same measure for `CCC(=O)Nc1ccc(-c2nnc(SCC(=O)Nc3nccs3)n2C)cc1` [MLS000076456]: greater than 50 µM.
The compound `CCN1C(=O)/C(=C/c2nc3ccccc3c(=O)n2-c2ccccc2)c2ccccc21` [2-[(1-ethyl-2-oxo-1,2-dihydro-3H-indol-3-ylidene)methyl]-3-phenyl-4(3H)-quinazolinone] displayed an IC50 greater than 50 µM.
For `CCCc1nc2sc3c(c2c(=O)n1NC(=O)CCC(=O)O)CCCC3` [4-keto-4-[(4-keto-2-propyl-5,6,7,8-tetrahydrobenzothiopheno[2,3-d]pyrimidin-3-yl)amino]butyric acid] the value was greater than 50 µM; for `Cn1c(-c2cc3ccc(OC(=O)C(C)(C)C)cc3oc2=O)nc2ccccc21` [2,2-Dimethyl-propionic acid 3-(1-methyl-1H-benzoimidazol-2-yl)-2-oxo-2H-chromen-7-yl ester], greater than 50 µM.
For `CCn1cnc2sc(C(=O)N3CCN(c4ccc(OC)cc4)CC3)c(C)c2c1=O` [3-ethyl-6-[4-(4-methoxyphenyl)piperazin-1-yl]carbonyl-5-methyl-thieno[2,3-d]pyrimidin-4-one] the value was greater than 50 µM; for `O=C(c1ccc(-n2cnnn2)cc1)N1CCCCC1` [1-piperidinyl-[4-(1-tetrazolyl)phenyl]methanone], greater than 50 µM.
The same measure for `CCOC(=O)c1ccc(NC(=O)c2c(O)[nH]c(=O)[nH]c2=O)cc1`: 2.28 µM; for `COc1ccc(CC2NCCC3(O)CCCCC23)cc1` (stereo not drawn) [1-(4-Methoxy-benzyl)-octahydro-isoquinolin-4a-ol]: greater than 50 µM.
For the compound `Cc1[nH]n2c(=O)cc(-c3ccc([N+](=O)[O-])cc3)nc2c1-c1ccccc1` [MLS000547439], the IC50 is greater than 50 µM.
For `COC(=O)CCc1c(C)[nH]c(=S)[nH]c1=O` [3-(6-methyl-4-oxo-2-sulfanylidene-1H-pyrimidin-5-yl)propanoic acid methyl ester], the IC50 was greater than 50 µM.
The same measure for `NC(=O)C1CCN(C2=C(Cl)C(=O)c3ccccc3C2=O)CC1` [SMR000180199]: 33.3 µM.
Take `O=C(COc1ccccc1)Nc1ccc(S(=O)(=O)N2CCOCC2)cc1` [MLS000108227]: the IC50 is greater than 50 µM.
For `Cc1ccc(CNC(=O)c2cc3c(=O)n(C)c4ccccc4c3n2C)cc1` [1,5-dimethyl-N-[(4-methylphenyl)methyl]-4-oxidanylidene-pyrrolo[3,2-c]quinoline-2-carboxamide] the value was greater than 50 µM; for `CC(=O)N(N=C1Sc2ccccc2C1=O)c1ccccc1` [N-[(Z)-(3-ketobenzothiophen-2-ylidene)amino]-N-phenyl-acetamide], greater than 50 µM; for `Cc1ccc(C(=O)c2c[nH]c(C(=O)NCCCN3CCOCC3)c2)cc1` [4-(4-methylbenzoyl)-N-(3-morpholin-4-ylpropyl)-1H-pyrrole-2-carboxamide], greater than 50 µM.
As to `Oc1ccc2ccc3cccc[n+]3c2c1` [9-benzo[c]quinolizin-11-iumol;iodide], the IC50 was 8.73 µM.
For `Cc1nn(C(C)C(=O)N2CCCCC2)c(=O)c2c1sc1ccccc12` (stereo not drawn) [2-(2-keto-1-methyl-2-piperidino-ethyl)-4-methyl-benzothiopheno[2,3-d]pyridazin-1-one] the value was greater than 50 µM.
For `O=C1CN(c2ccc(Br)cc2)C(=O)N1CC(=O)N1CCCc2ccccc21` [1-(4-bromophenyl)-3-[2-(3,4-dihydro-1(2H)-quinolinyl)-2-oxoethyl]-2,4-imidazolidinedione] the value was greater than 50 µM.
Consider `CC(C)Nc1nnc(SCC(=O)c2c(N)n(Cc3ccccc3)c(=O)n(C)c2=O)s1` [6-amino-1-benzyl-3-methyl-5-[2-[[5-(propan-2-ylamino)-1,3,4-thiadiazol-2-yl]sulfanyl]acetyl]pyrimidine-2,4-dione], for which the IC50 is greater than 50 µM.
In turn, `O=C(CNS(=O)(=O)c1ccc(Br)s1)N1CCCC1` [5-bromanyl-N-(2-oxidanylidene-2-pyrrolidin-1-yl-ethyl)thiophene-2-sulfonamide] returned an IC50 greater than 50 µM.

As a reminder, the IC50 is the point on the concentration scale where inhibition reaches its midpoint. Read a high IC50 as weaker potency in that assay.
